From patent US11285158B2, “Uses of pyrimidopyrimidinones as SIK inhibitors” (The General Hospital Corporation, priority 2017, dated 2022)
Entries after “also recorded” stand apart in the source; their conditions may differ.

Assays:
[1] = system: normal human melanocytes, UACC62 melanoma cells, and UACC257 melanoma cells; experiment: MITF and TRPM1 mRNA expression by qPCR; assay type: cell-based; details: for Mitf expression: UACC62 and UACC257 melanoma cells (FIG. 7); for TRPM1 mRNA levels (MITF gene target): delayed relative to MITF induction, 4 uM, over 24 hours; for MITF mRNA expression: UACC62 and UACC257 cells, 3 hours of treatment, relative to RPL11
Experimental: Cell Culture. UACC257 and UACC62 cells were grown in RPM1+1% penicillin and streptomycin+5% fetal bovine serum. Normal human melanocytes were grown in TIVA, and starved 24 hours in HAM's F-12+1% penicillin and streptomycin before all molecular experiments.
qPCR. mRNA was extracted from cells using the RNeasy Mini Kit (Qiagen®). KAPA SYBR® FAST Universal One-Step qRT-PCR Kit (KAPA BIOSYSTEMS®) was used to prepare mRNA samples for qPCR and samples were analyzed using the 7500 Fast Real Time PCR System (Applied Biosystems®). The relative expression of each gene was calculated by 7500 Fast System Software program, which utilizes Ct normalized to mRNA levels of RPL11 to calculate relative expression. Results are reported relative to control cells.

SIKs = experiment: Kinase activity in vitro assay (biochemical IC50 against SIKs); parameters: species or system human; details: compared with HG 9-91-01 (FIG. 6)
Experimental: Kinase activity in vitro assay. The biochemical activities against SIK2 were measured by Caliper-based mobility shift assay (PerkinElmer®). […] Reactions were quenched by adding 20 mM EDTA (pH 8) after 1 hour, and percentage of substrate conversion was measured by LabChip EZ Reader II (PerkinElmer®). IC50's for SIK2 inhibition were calculated using SmartFit nonlinear regression in Genedata® Screener software suite (Genedata®).
(§1) All other in vitro kinase assay were conducted using the SelectScreen Kinase Profiling Service at Thermo Fisher Scientific® (Madison, Wis.). The protocols are available from Thermo Fisher Scientific® website.

[2] = system: human breast skin explants; experiment: Human skin explants: darkening/pigmentation after topical SIK inhibitor; assay type: cell-based; details: for Results (skin darkening): Human Skin Explants
Experimental: Image and Colorimeter analysis were conducted 24 hours after the last treatment.
Human pigmentation experiments. Full thickness human breast skin explants were cultured in petri dishes with a solid phase and liquid phase phenol red free DMEM medium with […], 5% fungizone (Gibco®), and 10% FBS. Passive application refers to simply applying the treatment to skin without further rubbing or manipulation. Mechanical application refers to application of agents to skin with further rubbing of treatment with 10 clockwise turns of a gloved cotton swab applicator. Skin was harvested, fixed, and processed for paraffin embedding. Sections were cut from paraffin blocks, and sections were stained utilizing hematoxylin and eosin (morphology) and Fontana-Masson (melanin).

[3] = system: panel of 468 human kinases; experiment: KinomeScan kinome profiling; assay type: binding
Experimental: Kinome Profiling. Kinome profiling was performed using KinomeScan ScanMAX at compound concentration of 1 μM. Protocols are available from DiscoverX®.
(§2) Since there are limitations to topical delivery of drugs into human skin epidermis, novel SIK inhibitors designed to enhance epidermal permeation by reducing the size and increasing the lipophilicity (c Log P) to develop second generation SIK inhibitors YKL 06-061 and YKL 06-062 were derived (FIG. 6) (Bos and Meinardi 2000; Hadgraft and Pugh 1998). […] To assess the kinome selectivity information of new analogs, YKL-06-061 was screened across a panel of 468 human kinases at a concentration of […] using the KinomeScan methodology (DiscoverX). […] As the KinomeScan assays measure binding, enzymatic assays for these targets were also performed either in-house or using the SelectScreen Kinase Profiling Service at Thermo Fisher Scientific (Madison, Wis.).

FRK and SIKs = experiment: Enzymatic assays of KinomeScan top hits (in-house or SelectScreen); assay type: biochemical, human
Experimental: as §1, §2

UACC257 melanoma cells = experiment: Cell pelleting experiment (gross pigmentation of cell pellets); assay type: cell-based, human; details: 4 uM, 3 days of treatment
Experimental: Cell pelleting experiments. 1×10^5 UACC257 cells were plated per well in a 6-well plate. […] After 3 days, cells were trypsinized with 0.25% trypsin, resuspended in RPMI media, and pelleted. Pellets were washed 1× with PBS and allowed to dry before imaging.

Mc1r^e/e;K14—Scf mice = experiment: Mouse pigmentation experiment, redhair model; assay type: in vivo
Experimental: (§3) Mice. C57BL/6J Mc1r^e/e mice were crossed with K14—Scf transgenic mice. C57BL/6J Tyr^c2j/c2j were crossed with K14—Scf transgenic mice. (Kunisada et al. 1998; D'Orazio et al. 2006).
(§4) Mouse pigmentation experiments. Animals were treated with vehicle control or 37.5 mM HG 9-9-01 until uniform gross darkening was visible as stated in figure legends. Daily differences in darkening of the skin were measured by reflective colorimetry. Skin was harvested, fixed, and processed for paraffin embedding. Sections were cut from paraffin blocks, and sections were stained utilizing hematoxylin and eosin (morphology) and Fontana-Masson (melanin). Melanin dissolution was conducted utilizing NaOH lysis method (Wakamatsu and Ito 2002).
(§5) Colorimeter Measurements: Differences in darkening of the skin were measured by reflective colorimetry (CIE L* white-black color axis) utilizing a CR-400 Colorimeter (Minolta®) calibrated by a calibration plate (C: Y 93.1, x 0.3133, y 0.3194) before each set of measurements.
(§6) To test this, a previously described mouse “redhair” model was utilized which carries the inactivating Mc1r^e/e mutant allele and a transgene, K14—SCF, in which Stem Cell Factor expression is driven by the Keratin-14 promoter allowing for epidermal homing of melanocytes (Kunisada et al. 1998; D'Orazio et al. 2006). Albino mice harboring a mutation in the tyrosinase gene were combined with the K14—Scf transgene (tyr^c/c;K14—Scf mice) and served as controls to evaluate whether the pigmentation afforded by topical SIK inhibitor was dependent upon the canonical tyrosinase-melanin pathway. […] Skin pigmentation remained in its pretreatment state over the next 30 days (FIG. 3A; 3B). […] These findings combined with the small molecule and lipophilic nature of the SIK inhibitors led us to investigate the use of SIK inhibitors for topical eumelanization of human skin.

Tyr^c/c;K14—Scf mice = experiment: Mouse pigmentation experiment, albino control mice; assay type: in vivo
Experimental: as §3, §4, §5, §6

COc1cc(N2CCN(C)CC2)ccc1Nc1ncc2c(n1)N(C1CCC1)C(=O)N(c1c(C)cccc1C)C2 [YKL-06-061, 1-cyclobutyl-3-(2,6-dimethylphenyl)-7-(2-methoxy-4-(4-methylpiperazin-1-yl)phenylamino)-3,4-dihydropyrimido[4,5-d]pyrimidin-2(1H)-one]
Mitf expression [1]: induces Mitf expression
TRPM1 mRNA levels (MITF gene target) [1]: increased
MITF mRNA expression ([1]; normal human melanocytes): dose dependent increase
Induction of the pigmentation pathway compared with HG 9-91-01 ([1]; normal human melanocytes, Mitf and TRPM1 mRNA (FIG. 4)): as efficacious in inducing the pigmentation pathway as HG 9-91-01
IC50 values for inhibition of SIKs (SIKs): comparable
Results (skin darkening) ([2]; Table 2, passive topical application): Darkens
Results (skin darkening) ([2]; Table 4): Darkens
Gross pigmentation of human skin explants ([2]; passive topical application, 37.5 mM, 8 days (1×/day)): induced significant pigmentation
Melanin content, Fontana Masson staining ([2]; passive topical application, 37.5 mM, 8 days, compared to control): increased melanin content
S(1) score ([3]; concentration of 1 pM): 0.02
Number of kinases displaying tight binding (Ambit scores of less than or equal to 1) ([3]; concentration of 1 µM): 16
Kinase selectivity in enzymatic assays (FRK and SIKs): only inhibited one kinase (FRK) stronger than SIKs

COc1ccc(N(C(=O)Nc2c(C)cccc2C)c2cc(Nc3ccc(N4CCN(C)CC4)cc3)ncn2)c(OC)c1 [HG 9-91-01]
Mitf expression [1]: induces Mitf expression
TRPM1 mRNA levels (MITF gene target) [1]: increased
MITF mRNA expression ([1]; normal human melanocytes): Dose-dependent increases
Gross pigmentation of cell pellets (UACC257 melanoma cells): Gross pigmentation was observed
Fontana-Masson staining, difference between treatment groups (Mc1r^e/e;K14—Scf mice; 40 days after treatment, Mc1r^e/e;K14—Scf and Tyr^c/c;K14—Scf mice): no differences
Skin morphology, hematoxylin and eosin stain (Mc1r^e/e;K14—Scf mice; 40 days after treatment, all mice): normal morphology
Nuclear capping of melanosomes within epidermal keratinocytes (Mc1r^e/e;K14—Scf mice; Fontana-Masson stained skin sections): Nuclear capping of melanin-laden melanosomes was observed
Time to reversal of darkening after treatment was stopped (Mc1r^e/e;K14—Scf mice; after 6 days of topical treatment): ≤ 10 days
Skin morphology, hematoxylin and eosin staining (Mc1r^e/e;K14—Scf mice; after treatment): normal morphology
Extractable eumelanin, NaOH lysis of skin samples (Mc1r^e/e;K14—Scf mice; compared to all other treatment groups): visible increase in extractable eumelanin
Course of darkening (Mc1r^e/e;K14—Scf mice; topical application, 6 days of treatment): progressive and reversible; also recorded: progressive over 6 days of treatment
Reflective colorimetry (CIE L* white-black color axis) (Mc1r^e/e;K14—Scf mice; topical, daily, 37.5 mM): significant darkening
Gross skin darkening (Mc1r^e/e;K14—Scf mice; topical, daily, 37.5 mM, 30 uL, 6 days / 7 days (FIG. 2)): robust darkening
Melanin production, Fontana-Masson staining (Mc1r^e/e;K14—Scf mice; treated skin areas): strong induction of melanin production
Epidermis morphology, hematoxylin and eosin staining (Tyr^c/c;K14—Scf mice; after treatment): normal morphology
Pigment induction, Fontana-Masson staining (Tyr^c/c;K14—Scf mice; albino mice): no pigment induction
Visible change in skin pigmentation (Tyr^c/c;K14—Scf mice; albino mice, topical, daily, 37.5 mM): No visible change in skin pigmentation
Change of skin colour during and after treatment (Tyr^c/c;K14—Scf mice; during treatment or 14 days after treatment was stopped): No change
